Holding throughout (type): functional
The subject of assay [1] is NCI-H1299. Description: hTERT-SEAP (Human telomerase reverse transcriptase-SEAP) activity in non-small cell lung cancer H1299 cell at 22 uM concentration and level of cell viability determined in MTT assay.
The subject of assay [2] is NCI-H1299. The experiment in a line: hTERT-SEAP (Human telomerase reverse transcriptase-SEAP) activity in non-small cell lung cancer H1299 cell at 2.2 uM concentration and level of cell viability determined in MTT assay.
Assay [3] concerns NCI-H1299. Description: Compound was tested for human telomerase reverse transcriptase-SEAP (hTERT-SEAP) activity in non-small cell lung cancer H1299 cell at 22 uM concentration.
Assay [4] concerns NCI-H1299. The experiment in a line: Compound was tested for human telomerase reverse transcriptase-SEAP (hTERT-SEAP) activity in non-small cell lung cancer H1299 cell at 2.2 uM concentration.
The subject of assay [5] is NCI-H1299. Description: hTERT-SEAP (Human telomerase reverse transcriptase-SEAP) activity in non-small cell lung cancer H1299 cell at 220.0 uM concentration and level of cell viability determined in MTT assay.
For assay [6], the system named is BJ. Description: Compound was tested for human telomerase reverse transcriptase-SEAP (hTERT-SEAP) activity in immortalized hTERT-BJI at 22 uM concentration.
The test system of assay [7] is BJ. The experiment in a line: hTERT-SEAP (Human telomerase reverse transcriptase-SEAP) activity in immortalized hTERT-BJI at 22 uM concentration and level of cell viability determined in MTT assay.
Assay [8] deals with BJ. Description: Compound was tested for human telomerase reverse transcriptase-SEAP (hTERT-SEAP) activity in immortalized hTERT-BJI at 2.2 uM concentration.
Assay [9] deals with BJ. Description: hTERT-SEAP (Human telomerase reverse transcriptase-SEAP) activity in immortalized hTERT-BJI at 220.0 uM concentration and level of cell viability determined in MTT assay. (Formazan colour is commonly taken as a measure of viable cells.)
In assay [10] the test system is BJ. Description: Compound was tested for human telomerase reverse transcriptase-SEAP (hTERT-SEAP) activity in immortalized hTERT-BJI at 220.0 uM concentration.
The test system of assay [11] is NCI-H1299. The experiment in a line: Compound was tested for human telomerase reverse transcriptase-SEAP (hTERT-SEAP) activity in non-small cell lung cancer H1299 cell at 220.0 uM concentration.
Assay [12] has as its system BJ. The experiment in a line: hTERT-SEAP (Human telomerase reverse transcriptase-SEAP) activity in immortalized hTERT-BJI at 2.2 uM concentration and level of cell viability determined in MTT assay.
The subject of assay [13] is NCI-H1299. Description: hTERT-SEAP (Human telomerase reverse transcriptase-SEAP) activity in non-small cell lung cancer H1299 cell at 21 uM concentration and level of cell viability determined in MTT assay.
Assay [14] relates to NCI-H1299. The experiment in a line: Compound was tested for human telomerase reverse transcriptase-SEAP (hTERT-SEAP) activity in non-small cell lung cancer H1299 cell at 210.0 uM concentration.
Assay [15] relates to NCI-H1299. Description: hTERT-SEAP (Human telomerase reverse transcriptase-SEAP) activity in non-small cell lung cancer H1299 cell at 210.0 uM concentration and level of cell viability determined in MTT assay.
Assay [16] concerns BJ. The experiment in a line: hTERT-SEAP (Human telomerase reverse transcriptase-SEAP) activity in immortalized hTERT-BJI at 210.0 uM concentration and level of cell viability determined in MTT assay.
For assay [17], the system named is NCI-H1299. Description: Compound was tested for human telomerase reverse transcriptase-SEAP (hTERT-SEAP) activity in non-small cell lung cancer H1299 cell at 21 uM concentration.
Assay [18] has as its system BJ. The experiment in a line: hTERT-SEAP (Human telomerase reverse transcriptase-SEAP) activity in immortalized hTERT-BJI at 21 uM concentration and level of cell viability determined in MTT assay.
Assay [19] concerns BJ. The experiment in a line: Compound was tested for human telomerase reverse transcriptase-SEAP (hTERT-SEAP) activity in immortalized hTERT-BJI at 21 uM concentration.
In assay [20] the test system is BJ. The experiment in a line: Compound was tested for human telomerase reverse transcriptase-SEAP (hTERT-SEAP) activity in immortalized hTERT-BJI at 2.1 uM concentration.
Assay [21] relates to BJ. The experiment in a line: Compound was tested for human telomerase reverse transcriptase-SEAP (hTERT-SEAP) activity in immortalized hTERT-BJI at 210.0 uM concentration.
For assay [22], the system named is NCI-H1299. Description: hTERT-SEAP (Human telomerase reverse transcriptase-SEAP) activity in non-small cell lung cancer H1299 cell at 2.1 uM concentration and level of cell viability determined in MTT assay.
For assay [23], the system named is NCI-H1299. Description: Compound was tested for human telomerase reverse transcriptase-SEAP (hTERT-SEAP) activity in non-small cell lung cancer H1299 cell at 2.1 uM concentration.

The structures appear in SMILES notation.

As to `O=C1c2cccc(SCCc3ccccc3)c2C(=O)c2cccc(SCCc3ccccc3)c21`, the Relative viability in the assay with NCI-H1299 [1] was 51%; in the assay with NCI-H1299 [2] it was 93%; with NCI-H1299 [5] it was 27%; in the assay with BJ [7] it was 54%; in the assay with BJ [9], 35%; with BJ [12], 91%. In addition, the “Relative SEAP activity” value was found to be 102% in the assay with NCI-H1299 [3]; 108% in the assay on NCI-H1299 [4]; 109% with BJ [6]; 119% in the assay on BJ [8]; 110% in the assay with BJ [10]; 97% in the assay with NCI-H1299 [11].
As for `Cc1ccc(C(=O)Oc2cccc3c2C(=O)c2cccc(OC(=O)c4ccc(C)cc4)c2C3=O)cc1`, the Relative viability in the assay on NCI-H1299 [13] was 33%; in the assay with NCI-H1299 [15], 32%; in the assay on BJ [16], 56%; with BJ [18], 98%; in the assay on NCI-H1299 [22], 61%. Also, the “Relative SEAP activity” value with NCI-H1299 [14] was determined as 95%; in the assay with NCI-H1299 [17], 95%; with BJ [19] it was 126%; in the assay with BJ [20], 130%; in the assay with BJ [21] it was 99%; with NCI-H1299 [23], 98%.
Take `Nc1ccc(Sc2cccc3c2C(=O)c2cccc(Sc4ccc(N)cc4)c2C3=O)cc1`: the Relative viability came to 76% in the assay with NCI-H1299 [1]; 103% in the assay with NCI-H1299 [2]; 42% in the assay with NCI-H1299 [5]; 65% with BJ [7]; 86% with BJ [12]. The “Relative SEAP activity” value is recorded as 95% in the assay on NCI-H1299 [3]; 100% with NCI-H1299 [4]; 97% with BJ [6]; 97% with BJ [8]; 26% in the assay with BJ [10]; 84% with NCI-H1299 [11].
In the case of `O=C1c2cccc(SCc3ccccc3)c2C(=O)c2cccc(SCc3ccccc3)c21`, the Relative viability stood at 44% in the assay on NCI-H1299 [1]; 83% in the assay on NCI-H1299 [2]; 34% in the assay with NCI-H1299 [5]; 98% in the assay on BJ [7]; 47% in the assay with BJ [9]; 121% in the assay with BJ [12]. The “Relative SEAP activity” value with NCI-H1299 [3] is recorded as 100%; in the assay on NCI-H1299 [4] it was 97%; with BJ [6] it was 112%; in the assay on BJ [8], 117%; in the assay with BJ [10], 87%; in the assay with NCI-H1299 [11], 100%.
In the case of `Nc1cccc(Sc2cccc3c2C(=O)c2cccc(Sc4cccc(N)c4)c2C3=O)c1`, the Relative viability in the assay with NCI-H1299 [1] was determined as 68%; in the assay on NCI-H1299 [2] it was 92%; in the assay with NCI-H1299 [5], 32%; in the assay on BJ [7], 9%; in the assay on BJ [9] it was 4%; in the assay with BJ [12] it was 104%. Besides, the “Relative SEAP activity” value came out at 109% in the assay on NCI-H1299 [3]; 106% in the assay with NCI-H1299 [4]; 41% in the assay on BJ [6]; 118% in the assay with BJ [8]; 8% in the assay on BJ [10]; 101% with NCI-H1299 [11].
For `O=C1c2cccc(SCCCCCCO)c2C(=O)c2cccc(SCCCCCCO)c21`, the Relative viability with NCI-H1299 [13] is listed as 94%; in the assay on NCI-H1299 [15] it was 36%; in the assay with BJ [16], 40%; with BJ [18], 70%; with NCI-H1299 [22], 99%. Moreover, the “Relative SEAP activity” value in the assay on NCI-H1299 [14] was found to be 68%; with NCI-H1299 [17] it was 100%; in the assay with BJ [19], 128%; in the assay on BJ [20], 140%; with BJ [21] it was 75%; in the assay with NCI-H1299 [23], 110%.
As to `Cc1ccc(Sc2cccc3c2C(=O)c2cccc(Sc4ccc(C)cc4)c2C3=O)cc1`, the Relative viability in the assay with NCI-H1299 [1] amounted to 41%; in the assay on NCI-H1299 [2] it was 84%; in the assay on NCI-H1299 [5] it was 25%; in the assay on BJ [7] it was 77%; in the assay on BJ [9] it was 22%; in the assay with BJ [12], 111%. Moreover, the “Relative SEAP activity” value in the assay on NCI-H1299 [3] was determined as 103%; in the assay on NCI-H1299 [4] it was 117%; in the assay on BJ [6], 109%; in the assay on BJ [8], 132%; with BJ [10], 87%; in the assay with NCI-H1299 [11] it was 90%.
Consider `Cc1cccc(C(=O)Oc2cccc3c2C(=O)c2cccc(OC(=O)c4cccc(C)c4)c2C3=O)c1`, for which the Relative viability is on record as 28% with NCI-H1299 [13]; 29% in the assay with NCI-H1299 [15]; 47% in the assay with BJ [16]; 54% in the assay on BJ [18]; 26% in the assay on NCI-H1299 [22]. For the same compound, the “Relative SEAP activity” value came out at 110% with NCI-H1299 [14]; 116% in the assay on NCI-H1299 [17]; 124% in the assay on BJ [19]; 141% with BJ [20]; 86% in the assay with BJ [21]; 104% in the assay on NCI-H1299 [23].
For `O=C(Oc1cccc2c1C(=O)c1cccc(OC(=O)c3ccccc3)c1C2=O)c1ccccc1`, the Relative viability with NCI-H1299 [1] worked out at 60%; in the assay on NCI-H1299 [2], 99%; in the assay with NCI-H1299 [5], 33%; with BJ [7], 87%; in the assay with BJ [9], 51%; in the assay on BJ [12] it was 103%. The “Relative SEAP activity” value in the assay with NCI-H1299 [3] came to 94%; in the assay on NCI-H1299 [4], 88%; with BJ [6], 122%; in the assay on BJ [8], 137%; in the assay on BJ [10], 84%; in the assay with NCI-H1299 [11], 86%.
Regarding `O=C(Cc1ccccc1)Oc1cccc2c1C(=O)c1cccc(OC(=O)Cc3ccccc3)c1C2=O`, the Relative viability with NCI-H1299 [13] was 53%; in the assay on NCI-H1299 [15], 30%; in the assay with BJ [16] it was 64%; with BJ [18] it was 97%; in the assay on NCI-H1299 [22], 91%. Besides, the “Relative SEAP activity” value with NCI-H1299 [14] amounted to 142%; in the assay with NCI-H1299 [17], 101%; with BJ [19], 125%; in the assay on BJ [20], 129%; with BJ [21], 100%; with NCI-H1299 [23], 98%.
As for `Cc1ccccc1C(=O)Oc1cccc2c1C(=O)c1cccc(OC(=O)c3ccccc3C)c1C2=O`, the Relative viability was 36% with NCI-H1299 [13]; 45% with NCI-H1299 [15]; 39% with BJ [16]; 82% with BJ [18]; 72% in the assay with NCI-H1299 [22]. Besides, the “Relative SEAP activity” value in the assay with NCI-H1299 [14] is listed as 90%; with NCI-H1299 [17], 91%; in the assay with BJ [19], 120%; in the assay on BJ [20] it was 129%; in the assay on BJ [21], 94%; in the assay with NCI-H1299 [23], 97%.

The record behind these values is ChEMBL document CHEMBL1144896 (2003).
